This note sets out measurements from article PMC12957798, “Adaptation of plateau frog peptide: From antimicrobial to angiogenic and proliferative functions” (Journal of Advanced Research, 2025).

Entries after “also recorded” stand apart in the source; their conditions may differ.

The test system of test [1] is EGF mRNA. In words: qPCR EGF mRNA in HaCaT. The test is classed as cell-based, Human. The note with it: SC17-2 20 μg/mL, n = 6. Here is the method:
HaCaT cells were treated as above, washed twice with PBS and lysed using Trizol for 5 min, after which 200 μL of chloroform was added and shaken vigorously for 30 s. The cells were centrifuged for 15 min to separate the upper and lower layers (12,500 g, 4 °C). The supernatant was vortexed with an equal amount of isopropanol and left to stand for 10 min, and then centrifuged again under the same conditions to retain only the white precipitate. 500 μL of 75 % ethanol was added and centrifuged (12000 rpm, 4 °C, 10 min) and the operation was repeated twice. Afterwards, DEPC was used for dissolution and the concentration was determined by nanodrop. One-step reverse transcription to DNA was performed using 5 × MIX, after which primers and 2 × MIX were added and placed. qPCR was performed (LightCycler96, F. Hoffmann-La Roche, Swiss).

Test [2] deals with HaCaT cells. Description: In vitro scratch wound healing (migration) assay, HaCaT. The test is classed as cell-based, Human. Particulars: SC17-2 concentrations exceeding 10 μg/mL, 16 h.
The subject of test [3] is HaCaT cells. Description: In vitro UVB damage repair (CCK-8). The test is classed as cell-based, Human. Here is the method: HaCaT cells were inoculated in 24-well plates at 1 × 10^4 cells/well and incubated for 24 h to ensure uniformity and number of cells per well. Prior to UVB irradiation, cells were washed with phosphate buffer solution (PBS) and covered with 300 μL of PBS. The blank control group was wrapped through tinfoil to eliminate the effects caused by UVB irradiation and subsequently irradiated through […]. Immediately after irradiation, PBS was replaced with DMEM/F12 medium and 20 and 5 μg/mL of peptides SC17-2 were added, respectively, and incubated for 24 h. After that, 10 μL of CCK-8 was added to each well, and incubated for 2 h. The absorbance values of each well were measured at 450 nm.

The test system of test [4] is BALB/c mice. In words: Mouse full-thickness skin wound healing. The test is classed as in vivo. The note with it: for wound area: 20 μL daily on wound, relative to day 1, mean ± SEM, n = 7. The procedure: Mice were anaesthetised with sodium pentobarbital 2 % by intraperitoneal injection (0.1 mL/20 g mouse body weight), and after anaesthesia, hair was removed from the back using depilatory cream and power scissors, and circular full-thickness skin wounds of the same diameter were marked and created on the back of each mouse using circular stamps and red sealant. The mouse wounds were then covered and infiltrated daily with 20 μL of different concentrations of SC17-2 or 20 ng/mL VEGF, and an equal volume of saline was used in the control group. The mice were anaesthetised by isoflurane nebulisation (concentration 2 %) every two days and then placed under an optical camera to photograph the effect of the wound area.
(§1) Sodium pentobarbital (2 %) was utilised for the anaesthetisation of mice by intraperitoneal injection (0.1 mL/20 g of mouse body weight). Subsequent to the induction of anaesthesia, the dorsal hair was removed using depilatory creams and electric scissors. Thereafter, circular full skin wounds of the same diameter were marked and created on the back of each mouse using circular stamps and red stencils. Mouse wounds were then covered and infiltrated daily with 20 μL of different concentrations of SC17-2 or 20 ng/mL of VEGF, and an equal volume of saline was used in the control group. Mice were anaesthetised every two days using isoflurane nebulisation followed by anaesthesia (concentration 2 %), after which they were placed under an optical camera to photograph the effect of wound area. After 13 days of treatment, mice were anaesthetised using isoflurane nebulisation followed by injection of an overdose of sodium pentobarbital to euthanise the mice (200 mg/kg). The wounds and their surrounding tissues were then excised for histopathological evaluation (Masson and H&E staining) and analysed by Enface immunofluorescence staining.

For test [5], the system named is wound tissue. Description: H&E staining of mouse wound sections. The test is classed as in vivo. Here is the method: as §1
Test [6] deals with Transgenic zebrafish Tg (Fli1a:eGFP). In words: Zebrafish VRI-induced vascular insufficiency model (ISV). The test is classed as in vivo. Particulars: VRI 300 ng/mL. The procedure: Transgenic zebrafish Tg (Fli1a:eGFP) were cultured in culture tanks at 28 °C in a 14 h:10 h light/dark cycle for up to 6 months and subsequently made to produce zygotes by mating only, zebrafish larvae at 24 h post fertilisation (hpf) were induced for 3 h with a VEGFR tyrosine kinase inhibitor II (VRI) to produce a model of vascular insufficiency, after which they were washed to abort the effect of VRI was added to the same number of zebrafish of different groups with SC17-2 or equivalent amount of PBS, and images of zebrafish embryos were captured by Leica fluorescence microscopy, and the ISV index was calculated as follows: ISV index = intact blood vessels × 1 + defective blood vessels × 0.5.

Test [7] has as its system Acinetobacter baumannii (ATCC 19606), Candida auris (ATCC 10231), Pseudomonas aeruginosa (ATCC 27853) and Staphylococcus aureus (ATCC 6538). In words: Disk diffusion (paper-disc agar-diffusion) antimicrobial test. The test is classed as cell-based. The note with it: SC17-2 10 mg/mL, 1 mL on filter paper, 24 h, 37 °C, b51 statement also rests on the MIC test. Here is the method:
Disk diffusion and broth microdilution tests were selected as the standard method for screening the antimicrobial activity of SC17-2 [58]. The experiments were conducted utilising the disk diffusion test, whereby the following strains were examined: Acinetobacter baumannii (ATCC 19606), Candida auris (ATCC 10231), Pseudomonas aeruginosa (ATCC 27853) and Staphylococcus aureus (ATCC 6538). The concentration of bacterial suspension was then adjusted to 1 × 10^5 CFU/mL with saline, after which it was set aside. Separate plates containing bacterial agar were prepared: MH agar was utilised for the isolation of bacterial samples, while Sartorius agar was employed for the isolation of fungal samples. The suspensions containing the aforementioned microorganisms were then spread on the designated plates at a rate of 1:1000. A sterile filter paper was used to dispense 1 mL of SC17-2 (10 mg/mL), with equal amounts of PBS and Vancomycin/Colistin serving as controls. The plates were then subjected to the appropriate temperature (24 h at 37 °C) and subsequently observed under a camera to ascertain the results.

Where [8] appears, read: increase in concentration of SC17-2.

Turning to “SFMPLSIPIMCKMLSKC [SC17-2, peptide of the pleskein family from the skin transcriptome of the frog Nanorana parkeri, made by solid-phase synthesis]”, the “mRNA expression of EGF” value in test [1] is given as “significantly elevated”. In test [2], the HaCaT migration result is listed as “notable enhancement”. Moreover, the “UVB damage repair compared with non-irradiated group” value in test [3] (SC17-2 20 μg/mL vs group not irradiated) is reported as “considerably less pronounced”. In test [3] (SC17-2 20 μg/mL, 24 h after 5 J/cm UVB, CCK-8, vs saline after irradiation), the “attenuation of UVB-induced damage” value is recorded as “capable of effectively removing the damage caused by UVB radiation”. In addition, in test [3] (SC17-2 20 and 5 μg/mL, 24 h, CCK-8, n = 3), the “attenuation of cell injuries after UVB irradiation” value is given as “could attenuate the cell injuries”. The “reduction of wound area vs control, significance” value in test [4] (SC17-2 20 μg/mL, at times other than day 9) was “significantly promote the reduction of wound area”. Also, the “reduction of wound area vs control on day 9” value in test [4] (SC17-2 20 μg/mL, day 9) is recorded as “non-significant difference”. Besides, the “final reduction in wound area, dose dependence” value in test [4] (after 13 days of treatment) was “metrologically dependent on SC17-2”. Further, the wound area in test [4] (day 3, SC17-2 20 μg/mL) is recorded as 77.84 ± 3.34%; in test [4] (day 5, SC17-2 20 μg/mL), 54.43 ± 2.53%; in test [4] (day 13, SC17-2 20 μg/mL), 2.65 ± 0.72%. For the same sequence, in test [4] (day 13, SC17-2 20 μg/mL vs VEGF), the “wound area compared with VEGF” value is given as “significantly smaller”. Further, in test [4] (days 3 and 5, SC17-2 20 μg/mL), the “wound area reduction, ratio to saline-treated control” value is listed as about 1.3 fold. In test [5] (day 13, SC17-2 no less than 10 μg/mL), the “inflammatory cell infiltration in wound tissue” value was “significantly reduced the degree of inflammatory cell infiltration in the wound tissue”. Further, the epithelial tissue thickness entry in test [5] (setting [8]) is listed as “notable thickening of epithelial tissue”. In addition, in test [5] (setting [8]), the granulation tissue formation entry is “enhanced granulation tissue formation”. In test [6] (SC17-2 20 μg/mL, 24 h, n = 6), the “ISVs restored, relative to healthy zebrafish” value was found to be 84.18%. For the same sequence, the “number of ISV, dose dependence” value in test [6] (SC17-2 5, 10, 20 μg/mL, 24 h post-treatment) was “significant increase in the number of ISV in a dose-dependent manner”. In addition, in test [7], the “antimicrobial (bacteriostatic) activity” value was “no bacteriostatic activity; also recorded: does not appear to have antimicrobial activity”.
